Source: ChEMBL document CHEMBL1128766, “The synthesis and lactamase inhibitory activity of 6-(carboxymethylene)penicillins and 7-(carboxymethylene)cephalosporins” (Bioorg Med Chem Lett, 1995)

Experiments:
[1] = tested on: Enterobacter cloacae; assay: […] antibacterial activity (synergistic study) against Enterobacter cloacae 12368; type: functional
[2] = tested on: Staphylococcus aureus; assay: […] antibacterial activity (synergistic study) against Staphylococcus aureus ATCC 29213; type: functional
[3] = tested on: Escherichia coli; assay: […] antibacterial activity (synergistic study) against Escherichia coli TEM-2; type: functional
[4] = tested on: Enterobacter cloacae; assay: […] antibacterial activity (synergistic study) against Enterobacter cloacae P99; type: functional
[5] = tested on: Escherichia coli; assay: […] antibacterial activity (synergistic study) against Escherichia coli OXA-1; type: functional
[6] = tested on: Escherichia coli; assay: […] antibacterial activity (synergistic study) against Escherichia coli TEM-1; type: functional
[7] = molecular target: Beta-lactamase TEM (Escherichia coli, UniProt P62593); assay: Inhibitory activity against beta-Lactamase enzyme derived from Escherichia coli WC3310 TEM-2
Sequence of Beta-lactamase TEM (P62593 whole entry): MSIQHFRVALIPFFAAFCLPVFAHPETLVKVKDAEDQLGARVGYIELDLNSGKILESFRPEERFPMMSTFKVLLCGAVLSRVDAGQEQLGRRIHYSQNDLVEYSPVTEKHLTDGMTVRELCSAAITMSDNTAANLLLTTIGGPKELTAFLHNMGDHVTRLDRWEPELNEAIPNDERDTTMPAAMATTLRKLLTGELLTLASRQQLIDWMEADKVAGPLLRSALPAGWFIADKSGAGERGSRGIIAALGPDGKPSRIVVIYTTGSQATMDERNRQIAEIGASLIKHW

[8] = molecular target: T1, Beta-lactamase (Enterobacter cloacae, UniProt P05364)
T1 sequence (P05364 whole entry): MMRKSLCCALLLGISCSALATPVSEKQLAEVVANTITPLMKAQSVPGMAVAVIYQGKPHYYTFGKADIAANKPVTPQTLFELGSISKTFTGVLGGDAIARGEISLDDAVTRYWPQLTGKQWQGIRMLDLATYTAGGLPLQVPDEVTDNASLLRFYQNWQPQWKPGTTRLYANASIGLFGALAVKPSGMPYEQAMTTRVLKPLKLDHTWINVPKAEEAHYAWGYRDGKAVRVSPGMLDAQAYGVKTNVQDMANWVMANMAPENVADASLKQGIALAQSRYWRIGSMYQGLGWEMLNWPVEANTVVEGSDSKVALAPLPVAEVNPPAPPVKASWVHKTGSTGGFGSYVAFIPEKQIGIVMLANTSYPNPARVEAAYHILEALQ
Description: Inhibitory activity against beta-Lactamase enzyme derived from Enterobacter cloacae P99

[9] = molecular target: T1, Beta-lactamase; remark: listed apart in the source
Description: Inhibitory activity against beta-Lactamase enzyme derived from Enterobacter cloacae SC 12368 E-2

Compound | MIC [1] [µg/mL] | MIC [2] [µg/mL] | MIC [3] [µg/mL] | MIC [4] [µg/mL] | MIC [5] [µg/mL] | MIC [6] [µg/mL] | IC50 [7] [nM] | IC50 [8] [nM] | IC50 [9] [nM]
CC(=O)OCC1=C(C(=O)[O-])N2C(=O)/C(=C/C(=O)OC(C)(C)C)[C@H]2S(=O)(=O)C1.[Na+] | > 128 | 4 | > 128 | > 128 | > 128 | > 128 | – | – | –
CC(C)(C)OC(=O)/C=C1/C(=O)N2[C@@H](C(=O)[O-])C(C)(C)S(=O)(=O)[C@H]12.[Na+] | > 128 | > 128 | > 128 | > 128 | > 128 | > 128 | 136 | 4090 | 13600
CC1(C)[C@H](C(=O)[O-])N2C(=O)/C(=C/C(=O)[O-])[C@H]2S1(=O)=O.[Na+].[Na+] | > 128 | > 128 | > 128 | > 128 | > 128 | > 128 | 120 | 45 | 91
COC(=O)/C=C1/C(=O)N2[C@@H](C(=O)[O-])C(C)(C)S(=O)(=O)[C@H]12.[Na+] | > 128 | > 128 | > 128 | > 128 | > 128 | > 128 | 308 | 154 | 615
CCN1CCN(C(=O)NC(C(=O)N[C@H]2C(=O)N3[C@H]2SC(C)(C)[C@H]3C(=O)O)c2ccccc2)C(=O)C1=O.COC(=O)/C=C1/C(=O)N2[C@@H](C(=O)[O-])C(C)(C)S(=O)(=O)[C@H]12.[Na+] (some centres undefined) | 16 | 1 | 128 | 128 | 16 | 64 | – | – | –
CC(=O)OCC1=C(C(=O)[O-])N2C(=O)/C(=C/C(=O)[O-])[C@H]2S(=O)(=O)C1.[Na+].[Na+] | > 128 | 16 | > 128 | > 128 | > 128 | > 128 | 400 | > 20000 | > 20000
CC(C)(C)OC(=O)/C=C1/C(=O)N2[C@@H]1SC(C)(C)[C@@H]2C(=O)O | – | – | – | – | – | – | > 20000 | 8950 | > 20000
COC(=O)/C=C1/C(=O)N2C(C(=O)O)=C(COC(C)=O)CS[C@H]12 | – | – | – | – | – | – | > 20000 | > 20000 | > 20000
CC(=O)/C=C1/C(=O)N2[C@@H]1SC(C)(C)[C@@H]2C(=O)O | – | – | – | – | – | – | 3 | 361 | 5410
COC(=O)/C=C1/C(=O)N2[C@@H]1SC(C)(C)[C@@H]2C(=O)O | – | – | – | – | – | – | > 20000 | > 20000 | > 20000
COC(=O)/C=C1/C(=O)N2C(C(=O)[O-])=C(COC(C)=O)CS(=O)(=O)[C@H]12.[Na+] | > 128 | > 128 | > 128 | > 128 | > 128 | > 128 | 37 | > 20000 | > 20000
C=C=C1C(=O)N2C(C(=O)O)=C(COC(C)=O)CS(=O)(=O)[C@H]12 | – | – | – | – | – | – | > 20000 | 130 | 260
CC(=O)OCC1=C(C(=O)O)N2C(=O)/C(=C/C(=O)O)[C@H]2SC1 | – | – | – | – | – | – | > 20000 | > 20000 | > 20000
CC1(C)[C@H](C(=O)[O-])N2C(=O)/C(=C/C(=O)[O-])[C@H]2S1(=O)=O.CCN1CCN(C(=O)NC(C(=O)N[C@H]2C(=O)N3[C@H]2SC(C)(C)[C@H]3C(=O)O)c2ccccc2)C(=O)C1=O.[Na+].[Na+] (some centres undefined) | 16 | 4 | 64 | 128 | 16 | 32 | – | – | –
CC(=O)OCC1=C(C(=O)[O-])N2C(=O)/C(=C/C(=O)OC(C)(C)C)[C@H]2S(=O)(=O)C1.CCN1CCN(C(=O)NC(C(=O)N[C@H]2C(=O)N3[C@H]2SC(C)(C)[C@H]3C(=O)O)c2ccccc2)C(=O)C1=O.[Na+] (some centres undefined) | 16 | 4 | 128 | 128 | 64 | 64 | – | – | –
C=C1C(=O)N2C(C(=O)O)=C(COC(C)=O)CS(=O)(=O)[C@H]12 | – | – | – | – | – | – | 800 | 25 | 25
CC(=O)OCC1=C(C(=O)[O-])N2C(=O)/C(=C/C(=O)[O-])[C@H]2S(=O)(=O)C1.CCN1CCN(C(=O)NC(C(=O)N[C@H]2C(=O)N3[C@H]2SC(C)(C)[C@H]3C(=O)O)c2ccccc2)C(=O)C1=O.[Na+].[Na+] (some centres undefined) | 32 | 4 | 128 | 128 | 64 | 64 | – | – | –
CC1(C)S[C@@H]2/C(=C\C(=O)O)C(=O)N2[C@H]1C(=O)O | – | – | – | – | – | – | > 20000 | 13900 | > 20000
CCN1CCN(C(=O)NC(C(=O)N[C@H]2C(=O)N3[C@H]2SC(C)(C)[C@H]3C(=O)O)c2ccccc2)C(=O)C1=O.COC(=O)/C=C1/C(=O)N2C(C(=O)[O-])=C(COC(C)=O)CS(=O)(=O)[C@H]12.[Na+] (some centres undefined) | 16 | 4 | 64 | 128 | 64 | 32 | – | – | –
CC(C)(C)OC(=O)/C=C1/C(=O)N2[C@@H](C(=O)[O-])C(C)(C)S(=O)(=O)[C@H]12.CCN1CCN(C(=O)NC(C(=O)N[C@H]2C(=O)N3[C@H]2SC(C)(C)[C@H]3C(=O)O)c2ccccc2)C(=O)C1=O.[Na+] (some centres undefined) | 32 | 2 | > 128 | 128 | 32 | 128 | – | – | –
C[C@]1(Cn2ccnn2)[C@H](C(=O)O)N2C(=O)C[C@H]2S1(=O)=O (single isomer, unassigned) [TAZOBACTAM] | > 128 | 64 | > 128 | > 128 | > 128 | > 128 | – | – | –
CCN1CCN(C(=O)N[C@@H](C(=O)NC2C(=O)N3C2SC(C)(C)C3C(=O)O)c2ccccc2)C(=O)C1=O.C[C@]1(Cn2ccnn2)[C@H](C(=O)O)N2C(=O)C[C@H]2S1(=O)=O (single isomer, unassigned; form 1) | 16 | 1 | 8 | 16 | 16 | 2 | – | – | –
CCN1CCN(C(=O)N[C@@H](C(=O)NC2C(=O)N3C2SC(C)(C)C3C(=O)O)c2ccccc2)C(=O)C1=O (single isomer, unassigned; form 2) [PIPERACILLIN] | 16 | 4 | > 128 | > 128 | 64 | > 128 | – | – | –
